Literature values as cited in US7972633B2, “Nutritional supplements for healthy memory and mental function” (Applied Cognitive Sciences, LLC, priority 2007, dated 2011).

Columns and labels:
[1] = tested on: patients with mild to moderate transient or permanent impairment of cognitive performance; details: 10 or 20 mg three times a day for 16 weeks, compared to placebo
[2] = tested on: healthy adults who have no evidence of cerebral dysfunction; details: two days' supplementation with 10, 20 or 40 mg daily, compared to placebo

## CCOC(=O)C1=C[C@]2(CC)CCCN3CCc4c(n1c1ccccc41)[C@@H]32 [vinpocetine, Vinpocetine]
[1]
  concentration, memory and severity of illness: significant improvements in concentration, memory, and reduced severity of illness
[2]
  ability to distinguish discrete sensory data, reaction time, short-term memory functions: significantly greater extent than placebo
